In patent US11078204B2, “Heterocyclic derivatives as PI3K inhibitors” (Incyte Corporation, priority 2018, dated 2021):
Counter-ions that a name gives are not always drawn.

Assays:
[1] = biological target: PI3Kδ (p110δ/p85α) Recombinant Human Protein (Homo sapiens (Human), UniProt O00329); assay: PI3Kδ Scintillation Proximity Assay; type: biochemical; conditions: 20 μM PIP2, 2 μM ATP, 3.4 nM PI3Kδ, 120 min
From the text: Example C. PI3Kδ Scintillation Proximity Assay
(§1) [γ-^33P]ATP (10 mCi/mL) and Wheat Germ Agglutinin (WGA) YSi SPA Scintillation Beads was purchased from Perkin Elmer (Waltham, Mass.). Lipid kinase substrate, D-myo-Phosphatidylinositol 4,5-bisphosphate (PtdInS(4,5)P2)D (+)-sn-1,2-di-O-octanoylglyceryl, 3-O-phospho linked (PIP2), CAS 204858-53-7, was purchased from Echelon Biosciences (Salt Lake City, Utah). PI3Kδ (p110δ/p85α) Recombinant Human Protein was purchased from Eurofins (St Charles, Mo.). ATP, MgCl2, DTT, EDTA, MOPS and CHAPS were purchased from Sigma Aldrich (St. Louis, Mo.).
(§2) The kinase reaction was conducted in polystyrene 384-well Greiner Bio-one white plate from Thermo Fisher Scientific in a final volume of 25 μL. Inhibitors were first diluted serially in DMSO and added to the plate wells before the addition of other reaction components. The final concentration of DMSO in the assay was 2%. The PI3Kδ assay was carried out at room temperature in 20 mM MOPS, pH 6.7, 10 mM MgCl2, 5 mM DTT and CHAPS 0.03%. Reactions were initiated by the addition of ATP, the final reaction mixture consisted of 20 μM PIP2, 2 μM ATP, 0.5 μCi [γ-^33P]ATP, 3.4 nM PI3Kδ. Reactions were incubated for 120 min and terminated by the addition of 40 μL SPA beads suspended in quench buffer: 163 mM potassium phosphate pH 7.8, 20% glycerol, 25 mM EDTA. The final concentration of SPA beads is 1.0 mg/mL. After the plate sealing, plates were shaken overnight at room temperature and centrifuged at 1500 rpm for 10 min, the radioactivity of the product was determined by scintillation counting on Topcount (PerkinElmer). IC50 determination was performed by fitting the curve of percent of the solvent control activity versus the log of the inhibitor concentration using the GraphPad Prism 6.0 software.

[2] = biological target: PI3Kγ (p110γ) Recombinant Human Protein (Homo sapiens (Human), UniProt P48736); assay: PI3K-γ Scintillation Proximity Assay; type: biochemical; conditions: 20 μM PIP2, 2 μM ATP, 13 nM PI3Kγ, 120 min
From the text: Example B. PI3K-γ Scintillation Proximity Assay
as §1, with “PI3Kγ (p110γ)” for “PI3Kδ (p110δ/p85α)”, “Life technology (Grand Island, N.Y.).” for “Eurofins (St Charles, Mo.).”
as §2, with “PI3Kγ” for “PI3Kδ”, “[γ-^33p]ATP, 13” for “[γ-^33P]ATP, 3.4”, “PI3Kγ.” for “PI3Kδ.”

PI3Kδ (p110δ/p85α) Recombinant Human Protein, sequence (O00329 whole entry): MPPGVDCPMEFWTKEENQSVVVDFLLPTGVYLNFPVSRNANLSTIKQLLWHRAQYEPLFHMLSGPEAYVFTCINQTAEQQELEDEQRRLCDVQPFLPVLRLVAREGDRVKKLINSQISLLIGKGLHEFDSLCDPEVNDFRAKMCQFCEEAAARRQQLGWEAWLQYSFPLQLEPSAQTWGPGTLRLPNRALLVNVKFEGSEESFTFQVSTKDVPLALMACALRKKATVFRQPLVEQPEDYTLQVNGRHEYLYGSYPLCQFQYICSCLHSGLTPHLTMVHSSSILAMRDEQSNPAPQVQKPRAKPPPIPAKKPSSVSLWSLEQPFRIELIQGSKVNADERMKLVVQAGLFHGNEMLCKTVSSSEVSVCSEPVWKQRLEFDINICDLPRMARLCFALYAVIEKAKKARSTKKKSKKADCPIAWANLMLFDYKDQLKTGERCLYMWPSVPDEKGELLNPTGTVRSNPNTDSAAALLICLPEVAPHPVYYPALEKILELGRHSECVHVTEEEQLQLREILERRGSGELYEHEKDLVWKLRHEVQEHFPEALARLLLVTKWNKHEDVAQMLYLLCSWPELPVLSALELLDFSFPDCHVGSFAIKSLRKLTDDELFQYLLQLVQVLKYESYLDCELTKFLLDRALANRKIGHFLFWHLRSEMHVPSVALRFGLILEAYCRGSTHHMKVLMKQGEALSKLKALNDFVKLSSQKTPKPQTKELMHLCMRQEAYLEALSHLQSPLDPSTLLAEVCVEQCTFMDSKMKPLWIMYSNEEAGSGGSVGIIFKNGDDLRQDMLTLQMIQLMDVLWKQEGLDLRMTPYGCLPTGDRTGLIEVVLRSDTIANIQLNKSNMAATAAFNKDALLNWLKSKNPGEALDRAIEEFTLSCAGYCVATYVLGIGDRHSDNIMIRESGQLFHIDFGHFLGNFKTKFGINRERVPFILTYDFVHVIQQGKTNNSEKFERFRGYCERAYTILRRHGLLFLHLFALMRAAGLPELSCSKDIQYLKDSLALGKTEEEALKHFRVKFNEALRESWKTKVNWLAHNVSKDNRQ
PI3Kδ (p110δ/p85α) Recombinant Human Protein, sequence (P27986 whole entry partner): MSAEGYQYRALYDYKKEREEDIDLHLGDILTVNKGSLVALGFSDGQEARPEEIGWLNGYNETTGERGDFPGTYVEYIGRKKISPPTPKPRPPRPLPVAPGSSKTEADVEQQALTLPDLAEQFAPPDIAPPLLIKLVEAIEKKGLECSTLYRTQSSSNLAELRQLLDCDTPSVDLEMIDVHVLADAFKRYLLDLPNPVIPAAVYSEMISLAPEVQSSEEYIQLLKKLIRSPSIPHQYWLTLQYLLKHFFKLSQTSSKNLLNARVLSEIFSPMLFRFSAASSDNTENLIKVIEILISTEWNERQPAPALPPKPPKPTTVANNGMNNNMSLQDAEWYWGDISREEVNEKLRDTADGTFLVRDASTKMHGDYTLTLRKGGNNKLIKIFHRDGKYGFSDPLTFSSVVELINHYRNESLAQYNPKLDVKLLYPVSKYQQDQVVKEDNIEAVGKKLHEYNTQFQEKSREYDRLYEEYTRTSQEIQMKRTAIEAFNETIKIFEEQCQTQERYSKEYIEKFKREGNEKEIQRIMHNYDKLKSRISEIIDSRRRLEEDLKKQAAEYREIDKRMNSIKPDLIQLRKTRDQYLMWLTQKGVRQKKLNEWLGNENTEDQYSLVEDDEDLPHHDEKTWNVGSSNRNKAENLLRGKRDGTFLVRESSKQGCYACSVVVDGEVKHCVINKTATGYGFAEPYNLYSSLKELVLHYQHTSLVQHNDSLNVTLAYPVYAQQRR
PI3Kγ (p110γ) Recombinant Human Protein, sequence (P48736 whole entry): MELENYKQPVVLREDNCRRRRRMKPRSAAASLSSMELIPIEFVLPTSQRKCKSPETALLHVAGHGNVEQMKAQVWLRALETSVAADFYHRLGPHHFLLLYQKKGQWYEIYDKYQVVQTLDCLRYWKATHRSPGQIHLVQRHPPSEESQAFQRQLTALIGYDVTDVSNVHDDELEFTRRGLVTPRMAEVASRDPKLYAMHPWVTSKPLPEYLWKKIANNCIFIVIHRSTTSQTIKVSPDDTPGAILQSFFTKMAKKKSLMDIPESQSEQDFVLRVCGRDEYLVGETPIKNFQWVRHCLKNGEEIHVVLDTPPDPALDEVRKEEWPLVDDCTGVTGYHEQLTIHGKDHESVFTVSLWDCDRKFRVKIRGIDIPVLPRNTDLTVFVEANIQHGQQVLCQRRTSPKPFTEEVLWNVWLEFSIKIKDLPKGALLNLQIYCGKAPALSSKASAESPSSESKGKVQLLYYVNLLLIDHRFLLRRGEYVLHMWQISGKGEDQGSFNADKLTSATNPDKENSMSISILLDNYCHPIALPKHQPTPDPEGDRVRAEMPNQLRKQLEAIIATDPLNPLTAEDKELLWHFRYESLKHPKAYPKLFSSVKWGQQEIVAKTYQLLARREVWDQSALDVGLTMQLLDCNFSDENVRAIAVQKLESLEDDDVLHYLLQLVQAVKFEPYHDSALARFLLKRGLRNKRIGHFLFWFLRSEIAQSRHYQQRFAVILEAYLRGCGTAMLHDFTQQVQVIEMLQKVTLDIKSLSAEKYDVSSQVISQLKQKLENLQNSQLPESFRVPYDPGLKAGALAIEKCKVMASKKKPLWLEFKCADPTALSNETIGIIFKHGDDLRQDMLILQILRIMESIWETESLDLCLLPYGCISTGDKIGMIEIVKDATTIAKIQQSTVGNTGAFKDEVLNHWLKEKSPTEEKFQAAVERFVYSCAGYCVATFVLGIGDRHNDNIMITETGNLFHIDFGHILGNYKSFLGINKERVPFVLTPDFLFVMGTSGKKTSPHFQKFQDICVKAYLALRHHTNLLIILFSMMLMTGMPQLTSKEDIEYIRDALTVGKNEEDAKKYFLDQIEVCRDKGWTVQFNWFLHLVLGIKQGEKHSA

SMILES	IC50 [1]	IC50 [2]
CC(C1CC1)n1cc2cc(-c3cnc4c(N)ncnn34)ncc2n1 (stereo not shown) [Example 26, 7-(2-(1-Cyclopropylethyl)-2H-pyrazolo[3,4-c]pyridin-5-yl)imidazo[2,1-f][1,2,4]triazin-4-amine, trifluoroacetate]	≥ 2000 nM	≤ 100 nM
CC(c1cn2cc(-c3cnc4c(N)ncnn34)ccc2n1)C1CC1 (stereo not shown) [Example 27, 7-(2-(1-Cyclopropylethyl)imidazo[1,2-a]pyridin-6-yl)imidazo[2,1-f][1,2,4]triazin-4-amine trifluoroacetate salt]	≥ 2000 nM	≤ 100 nM
CCN1Cc2cc(-c3cnc4c(N)ncnn34)ccc2C1=O [Example 10, 5-(4-Aminoimidazo[2,1-f][1,2,4]triazin-7-yl)-2-ethylisoindolin-1-one trifluoroacetate salt]	< 2000 nM	≤ 500 nM
CC(C)c1nc2ccc(-c3cnc4c(N)ncnn34)cn2n1 [Example 21, 7-(2-Isopropyl-[1,2,4]triazolo[1,5-a]pyridin-6-yl)imidazo[2,1-f][1,2,4]triazin-4-amine trifluoroacetate salt]	≥ 2000 nM	≤ 500 nM
C[C@@H](C1CC1)N1Cc2cc(-c3cnc4c(N)nc(C(=O)N5CC(O)C5)cn34)ccc2C1=O (single isomer, unassigned) [Example 30, trifluoroacetate salt]	≥ 2000 nM	≤ 100 nM
CC(C)c1cc2nc(-c3cnc4c(N)ncnn34)ccn2n1 [Example 24, 7-(2-Isopropylpyrazolo[1,5-a]pyrimidin-5-yl)imidazo[2,1-f][1,2,4]triazin-4-amine trifluoroacetate salt]	≥ 2000 nM	< 2000 nM
Cc1cc(-c2cnc3c(N)ncnn23)cc2cnn(C(C)C3CC3)c12 (stereo not shown) [Example 19, 7-(1-(1-Cyclopropylethyl)-7-methyl-1H-indazol-5-yl)imidazo[2,1-f][1,2,4]triazin-4-amine trifluoroacetate salt]	≥ 2000 nM	≤ 500 nM
CC(C)c1cn2cc(-c3cnc4c(N)ncnn34)ccc2n1 [Example 22, 7-(2-isopropylimidazo[1,2-a]pyridin-6-yl)imidazo[2,1-f][1,2,4]triazin-4-amine]	≥ 2000 nM	≤ 500 nM
CC(C1CC1)n1nc2ccc(-c3cnc4c(N)ncnn34)cc2n1 (racemic) [Example 20, 7-(2-(1-cyclopropylethyl)-2H-benzo[d][1,2,3]triazol-5-yl)imidazo[2,1-f][1,2,4]triazin-4-amine trifluoroacetate salt]	≥ 2000 nM	≤ 500 nM
CC(C)c1cc2cc(-c3cnc4c(N)ncnn34)ccn2n1 [Example 23, 7-(2-Isopropylpyrazolo[1,5-a]pyridin-5-yl)imidazo[2,1-f][1,2,4]triazin-4-amine trifluoroacetate salt]	≥ 2000 nM	≤ 500 nM

Second part, the molecule after the results:

IC50 [1]	IC50 [2]	SMILES
≥ 2000 nM	< 2000 nM	CS(=O)(=O)NCC(C1CC1)N1Cc2cc(-c3cnc4c(N)nc(C(F)(F)F)cn34)ccc2C1=O (racemic) [Example 43, N-(2-(5-(8-Amino-6-(trifluoromethyl)imidazo[1,2-a]pyrazin-3-yl)-1-oxoisoindolin-2-yl)-2-cyclopropylethyl)methanesulfonamide, trifluoroacetate salt]
< 2000 nM	< 2000 nM	Nc1nc(C(F)(F)F)cn2c(-c3ccc4c(c3)CNC4=O)cnc12 [Example 4, 5-(8-Amino-6-(trifluoromethyl)imidazo[1,2-a]pyrazin-3-yl)isoindolin-1-one trifluoroacetate salt]
< 2000 nM	≤ 500 nM	CCN1Cc2cc(-c3cnc4c(N)nc(C(F)(F)F)cn34)ccc2C1=O [Example 9, 5-(8-Amino-6-(trifluoromethyl)imidazo[1,2-a]pyrazin-3-yl)-2-ethylisoindolin-1-one trifluoroacetate salt]
≥ 2000 nM	≤ 500 nM	Nc1nc(C(F)(F)F)cn2c(-c3ccc4c(c3)CN(C(CO)C3CC3)C4=O)cnc12 (racemic) [Example 46, 5-(8-Amino-6-(trifluoromethyl)imidazo[1,2-a]pyrazin-3-yl)-2-(1-cyclopropyl-2-hydroxyethyl)isoindolin-1-one, trifluoroacetate salt]
≥ 2000 nM	< 2000 nM	NCC(C1CC1)N1Cc2cc(-c3cnc4c(N)nc(C(F)(F)F)cn34)ccc2C1=O (racemic) [Example 42, 2-(2-Amino-1-cyclopropylethyl)-5-(8-amino-6-(trifluoromethyl)imidazo[1,2-a]pyrazin-3-yl)isoindolin-1-one, trifluoroacetate salt]
≥ 2000 nM	≤ 500 nM	CC(C)(C)OC(=O)NCC(C1CC1)N1Cc2cc(-c3cnc4c(N)nc(C(F)(F)F)cn34)ccc2C1=O (racemic) [Example 41, tert-Butyl (2-(5-(8-amino-6-(trifluoromethyl)imidazo[1,2-a]pyrazin-3-yl)-1-oxoisoindolin-2-yl)-2-cyclopropylethyl)carbamate]
≥ 2000 nM	< 2000 nM	CNC(=O)C(C1CC1)N1Cc2cc(-c3cnc4c(N)nc(C(F)(F)F)cn34)ccc2C1=O (racemic) [Example 45, 2-(5-(8-Amino-6-(trifluoromethyl)imidazo[1,2-a]pyrazin-3-yl)-1-oxoisoindolin-2-yl)-2-cyclopropyl-N-methylacetamide, trifluoroacetate salt]
≥ 2000 nM	< 2000 nM	Nc1nc(C(F)(F)F)cn2c(-c3ccc4c(c3)CN(C(C(=O)O)C3CC3)C4=O)cnc12 (racemic) [Example 47, 2-(5-(8-Amino-6-(trifluoromethyl)imidazo[1,2-a]pyrazin-3-yl)-1-oxoisoindolin-2-yl)-2-cyclopropylacetic acid, trifluoroacetate salt]
≥ 2000 nM	< 2000 nM	CC(=O)NCC(C1CC1)N1Cc2cc(-c3cnc4c(N)nc(C(F)(F)F)cn34)ccc2C1=O (racemic) [Example 44, N-(2-(5-(8-Amino-6-(trifluoromethyl)imidazo[1,2-a]pyrazin-3-yl)-1-oxoisoindolin-2-yl)-2-cyclopropylethyl)acetamide, trifluoroacetate salt]
≥ 2000 nM	≤ 100 nM	CC(c1ccccc1)N1Cc2cc(-c3cnc4c(N)nc(C(F)(F)F)cn34)ccc2C1=O (racemic) [Example 11, 5-(8-Amino-6-(trifluoromethyl)imidazo[1,2-a]pyrazin-3-yl)-2-(1-phenylethyl)isoindolin-1-one 1.4× trifluoroacetate salt]
